Key:
[1] = test system: DMM mice (C57BL/6); assay: Slowing progression of OA in DMM post-traumatic OA mouse model (Safranin O staining, OARSI score); format: in vivo; conditions: for cartilage damage (fibrillation, erosion, loss of aggrecans) by Safranin O staining: oral daily for 8 weeks; for mean OARSI score ± standard deviation: oral gavage daily for 8 weeks, Carvacrol 50 mg/kg, Curcumin 50 mg/kg, EGCG 5 mg/kg, OPC 50 mg/kg or combination, score 0 healthy to 6 severe erosion, 8 animals/group
Text: Induction of osteoarthritis in mice. All studies were approved by the Albert Einstein College of Medicine Institutional Animal Care and Use Committee. Destabilization of the medial meniscus (DMM) was established in adult C57BL/6 mice (male, 5-6 months) by surgically transecting the medial meniscotibial ligament (MMTL) in the right hind limb (36). Briefly, the joint capsule immediately medial to the patellar tendon was incised, followed by blunt dissection of the fat pad, to provide visualization of the MMTL of the medial meniscus. The MMTL was transected, leading to DMM. In the sham surgery, the MMTL was visualized but not transected. The joint capsule and skin were closed with suture.
Animals were euthanized, hindlimbs were fixed in formalin, decalcified in formic acid, embedded in paraffin and sectioned for histology and immunohistochemistry. Sections were incubated overnight at 4° C. with antibodies against cleaved aggrecan (NITEGE, Ibex) and cleaved type II collagen (Col2-3/4M, Ibex), MMP-13 (Abcam), and ADAMTS5 (Abcam) followed by incubation with anti-mouse or anti-rabbit secondary antibody (Biocare Medical) and visualization with DAB chromagen (Vector Laboratories). Negative controls were stained with irrelevant isotype-matched antibodies (Biocare Medical). Safranin O-fast green staining was used to visualize proteoglycans in the articular cartilage. Severity of OA was evaluated for each mouse using the Osteoarthritis Research Society International (OARSI) scoring system (34) Immunostaining intensity for type II collagen or aggrecan cleavage epitopes was quantified by determining the “reciprocal intensity” of the stained articular cartilage matrix. Briefly, the light intensity value of random locations within azones from the posterior to anterior direction of the femoral and tibial condyles was measured using the color picker in Adobe Photoshop (37). Percentages of positive MMP-13 and ADAMTS5 chondrocytes were determined by counting the number of immunostained cells and dividing by the total number of chondrocytes visualized by a hematoxylin counterstain (Vector Laboratories).
To determine the efficacy of the C′-CEO formulation in slowing progression of OA in vivo, a well-established post-traumatic mouse model of OA was used. These OA mice were orally administered C′-CEO, individual compounds, or placebo daily. Severity of OA was evaluated 8 weeks after induction of OA, using a well-established and FDA recommended cartilage integrity stain, Safranin O, and a semi-quantitative Osteoarthritis Research Society International (OARSI) scoring system. Furthermore, the efficacy of the C′-CEO formulation was validated by examining the level of breakdown of two major cartilage matrix proteins, type II collagen and aggrecan, as cartilage degradation is a hallmark of OA. It was further examined how the C′-CEO formulation may have such effect by targeting CITED2 by examining CITED2 expression in the articular cartilage of these OA mice.
All studies were approved by the Albert Einstein College of Medicine Institutional Animal Care and Use Committee. Destabilization of the medial meniscus (DMM) was established in adult C57BL/6 mice (male, 5-6 months) by surgically transecting the medial meniscotibial ligament (MMTL) in the right hind limb Immediately after surgery, mice were administered either carvacrol (C′), curcumin (C), EGCG (E), OPC(O), C′-CEO, or vehicle control for 8 weeks. At 8 weeks following surgery, animals were euthanized, the hindlimbs were fixed in formalin, decalcified in formic acid, embedded in paraffin and sectioned for histology. Safranin O, a well-stablished cartilage stain, was used to visualize integrity of the articular cartilage and aggrecans in the articular cartilage. Severity of OA was evaluated using the OARSI scoring system.

[2] = test system: DMM mice (C57BL/6); assay: Tactile sensitivity testing (von Frey) in DMM OA mice; format: in vivo; conditions: oral administration, 8 weeks, summary over von Frey and open field tests
Description: Mice were acclimated for 30 minutes in individual chambers on top of a wire grid platform prior to von Frey testing. The plantar surface of the hind paw was stimulated with ascending force intensities of von Frey filaments (Stoelting) to determine tactile sensitivity. A positive response was defined as a rapid withdrawal of the hind paw when the stimulus was applied, and the number of positive responses for each stimulus was recorded. Tactile threshold was defined as a withdrawal response in 5 out of 10 trials to a given stimulus intensity (38). This threshold was calculated once per animal.
To determine pain relief, three animal behavior assessments were used: 1) von Frey, which determined sensitivity to mechanical stimuli [OA animals tend to have lower thresholds of pain to mechanical stimuli]; 2) distance traveled—a measure of joint movement [OA animals tend to move a lesser distance compared to non-OA animals]; 3) rearing—a measure of joint function [OA animals tend to rear, or stand up on their hind limbs less than non-OA animals].

Compound	cartilage damage (fibrillation, erosion, loss of aggrecans) by Safranin O staining [1]	mean OARSI score ± standard deviation [1]	pain relief of OA-associated pain (overall: mechanical sensitivity, joint movement and function) [2]
Cc1ccc(C(C)C)cc1O [Carvacrol]	some reduction in cartilage degradation	2.9 ± 0.45	did not result in a statistical improvement in pain relief
COc1cc(/C=C/C(=O)CC(=O)/C=C/c2ccc(O)c(OC)c2)ccc1O [Curcumin]	some reduction in cartilage degradation	2.4 ± 0.42	did not result in a statistical improvement in pain relief
Epigallocatechin-3-gallate [EGCG]	some reduction in cartilage degradation	2.1 ± 0.29	did not result in a statistical improvement in pain relief
